Experimental findings from US9814801B2, “Thiol-ene polymerization with vinylesters and vinylcarbonate” (Depuy Synthes Products, Inc., priority 2011, dated 2017) are described below.

A short description of one data set: in vitro. As to the method: (§1) The effects of each of vinyl ester 4V, acrylate 4A, and meth-acrylate 4M on osteoblastic MC3T3-E1 cells in vitro was tested by the MTT assay method. The osteoblastic MC3T3-E1 cells were cultured for five days in the presence of each of vinyl ester (4V), acrylate (4A), and meth-acrylate (4M).
(§2) Cytotoxicity of the newly synthesized monomers and the reference substances together with the thiols and photoinitiator used was examined in osteoblast cell culture by using an Alamar Blue Assay. This assay incorporates a fluorometric/colormetric growth indicator based on the detection of metabolic activity. 1M solutions of the monomers, thiols, and photoinitiator in DMSO (HYBRI-MAX®, Sigma) were prepared. […] For experiments, cells [osteoblasts taken of the strain C57BL/6 of mus musculus (ATCC Catalog No. CRL-2593, MC3T3-E1, Subclone 4)] were cultured in 100 μl DMEM Medium supplemented with 10% FCS, 100 U/ml Penicillin, and 100 μg/ml Streptomycin, in 96-well plates at a density of 6.4×10^3 cells well^−1 for 24 hours in humidified air (95% relative humidity) with 5% CO2 at 37° C. The next day, the cells were treated with 100 μL of the different concentrations of the monomers for 5 days in triplicates. 10 μL of resazurin were added and the cells incubated for 4 hours at 37° C. The fluorescence intensity was measured for excitation at 530 nm and emission at 580 nm and compared to untreated cells (cells+medium). As control groups cells treated with 1% DMSO-solution, a blank value, and PBS-puffer were used.

For another data set, the system named is fibroblast cell culture. Nature of the data set: Monomer cytotoxicity, Alamar Blue Assay in fibroblast cell culture. As to conditions: monomer concentration at which resorufin production was reduced to 50% of control, n=3. The source says: This assay incorporated a fluorometric/colormetric growth indicator based on detection of metabolic activity.
Data set [1] is described as follows: Photoreactivity by photo-DSC: time to reach the maximum of the polymerization heat. It counts as physicochemical. As for the experimental part: The compositions which are embodiments of the present invention were compared to acrylate and methacrylate based polymer systems as comparative examples.
The reactivity towards photopolymerization was tested with the help of photo-DSC (differential scanning calorimetry). The measurements were carried out using 2 wt % of 2-hydroxy-1-[4-(2-hydroxyethoxy)phenyl]-2-methyl-1-propanone (Irgacure 2959, Ciba SC) as photoinitiator.

Data set [2] deals with osteoblastic MC3T3-E1 cells. Nature of the data set: in vitro. Conditions: read-out: LC50; MC3T3-E1 cells cultured five days with monomer; n=3. As to the method: as §1, §2
Setting [3] is: Butanediol monomer series, 0% TMP700.
Setting [4] is: Butanediol monomer series, 0% TT.
[5] abbreviates: Butanediol monomer series, 10% TMP700.
Where [6] appears, read: Butanediol monomer series, 10% TT.
Where [7] appears, read: Butanediol monomer series, 20% TMP700.
Where [8] appears, read: Butanediol monomer series, 20% TT.
The mark [9] stands for this setting: Butanediol monomer series, 40% TMP700.
Setting [10] is: Butanediol monomer series, 40% TT.
[11] abbreviates: PEG200 monomer series, 0% TMP700.
The mark [12] stands for this setting: PEG200 monomer series, 10% TMP700.
Where [13] appears, read: PEG200 monomer series, 20% TMP700.
Where [14] appears, read: PEG200 monomer series, 40% TMP700.
Setting [15] is: PEG600 monomer series, 0% TMP700.
The mark [16] stands for this setting: PEG600 monomer series, 10% TMP700.
Setting [17] is: PEG600 monomer series, 20% TMP700.
Setting [18] is: PEG600 monomer series, 40% TMP700.

`O=C(CCS)OCC(COC(=O)CCS)(COC(=O)CCS)COC(=O)CCS` [PTM, pentaerythritol tetra(3-mercaptopropionate)] displayed a CC50 at 5 days in “in vitro” (C57BL/6, mouse, osteoblastic MC3T3-E1 cells (Subclone 4, ATCC CRL-2593)) of more than 10000 µM. In the data set with fibroblast cell culture, the “IC50 [mM] (TC50 values of various monomers)” value (from here on “IC50 [mM]”) was found to be 10 mM.

Regarding `C=COC(=O)OCCCCOC(=O)OC=C` [Butanediol Vinyl carbonate, 1,4-butanediol divinyl carbonate], the “time to reach the maximum of the polymerization heat” value (“time to reach the maximum” below) in data set [1] (setting [3]) turned out to be 3.3 s; in data set [1] (setting [4]), 3.3 s; in data set [1] (setting [5]), 6.1 s; in data set [1] (setting [6]), 7.1 s; in data set [1] (setting [7]) it was 4.4 s; in data set [1] (setting [8]), 3.0 s. In addition, the “time to reach the maximum” value in data set [1] (setting [9]) is 2.1 s; in data set [1] (setting [10]), 2.4 s.

Regarding `C=CC(=O)OCCCCOC(=O)C=C` [Butanediol Acrylate, 1,4-Butanediol-di-acrylate], the CC50 in data set [2] is less than 160 µM. Moreover, the “time to reach the maximum” value in data set [1] (setting [3]) is recorded as 2.7 s; in data set [1] (setting [4]), 2.7 s; in data set [1] (setting [5]), 2.9 s; in data set [1] (setting [6]), 2.5 s; in data set [1] (setting [7]) it was 3.5 s; in data set [1] (setting [8]) it was 2.8 s. The “time to reach the maximum” value in data set [1] (setting [9]) is 3.5 s; in data set [1] (setting [10]), 2.7 s.

In the case of `C=C(C)C(=O)OCCOCCOCCOCCOC(=O)C(=C)C` [TTEGDMA, Tetra(ethylene glycol) dimethacrylate], the “time to reach the maximum” value in data set [1] (setting [11]) stood at 12.6 s; in data set [1] (PEG200 monomer series, 0% TT), 12.6 s; in data set [1] (setting [12]) it was 56.0 s; in data set [1] (PEG200 monomer series, 10% TT), 51.5 s; in data set [1] (setting [13]), 55.1 s; in data set [1] (PEG200 monomer series, 20% TT), 58.3 s. In addition, the “time to reach the maximum” value in data set [1] (setting [14]) was 46.9 s; in data set [1] (PEG200 monomer series, 40% TT), 54.0 s. In addition, the “IC50 [mM]” value with fibroblast cell culture is recorded as less than 0.16 mM.

With `C=C(C)C(=O)OCCCCOC(=O)C(=C)C` [Butanediol Methacrylate, 1,4-Butanediol di-methacrylat], the CC50 in the data set “in vitro” was determined as 1300 µM. For the same molecule, the “time to reach the maximum” value in data set [1] (setting [3]) is listed as 28.6 s; in data set [1] (setting [4]), 28.6 s; in data set [1] (setting [5]) it was 90.2 s; in data set [1] (setting [6]) it was 87.6 s; in data set [1] (setting [7]), 85.4 s; in data set [1] (setting [8]), 83.8 s. Also, the “time to reach the maximum” value in data set [1] (setting [9]) is listed as 75.0 s; in data set [1] (setting [10]), 55.0 s.

With `C=CC(=O)OCCOCCOCCOCCOC(=O)C=C` [TTEGDAc, Tetra(ethylene glycol) diacrylate], the “time to reach the maximum” value in data set [1] (setting [11]) is 2.6 s; in data set [1] (PEG200 monomer series, 0% TT), 2.6 s; in data set [1] (setting [12]) it was 3.6 s; in data set [1] (PEG200 monomer series, 10% TT), 3.5 s; in data set [1] (setting [13]), 3.6 s; in data set [1] (PEG200 monomer series, 20% TT) it was 3.3 s. Besides, the “time to reach the maximum” value is on record as 3.4 s in data set [1] (setting [14]) and 3.3 s in data set [1] (PEG200 monomer series, 40% TT). In the data set with fibroblast cell culture, the “IC50 [mM]” value is recorded as less than 0.16 mM.

As for “Poly(ethylene glycol) diacrylate, MG 600 [PEG600 Acrylate]”, the “time to reach the maximum” value in data set [1] (setting [15]) turned out to be 3.2 s; in data set [1] (PEG600 monomer series, 0% TT), 3.2 s; in data set [1] (setting [16]), 3.8 s; in data set [1] (PEG600 monomer series, 10% TT), 3.2 s; in data set [1] (setting [17]), 3.7 s; in data set [1] (PEG600 monomer series, 20% TT), 3.0 s. Moreover, the “time to reach the maximum” value in data set [1] (setting [18]) was 3.2 s; in data set [1] (PEG600 monomer series, 40% TT), 3.0 s.

Turning to `C=COC(=O)COCCOCCOCC(=O)OC=C` [TUVE, ω,ω′-3,6,9-trioxaundecanedioic acid divinyl ester], the “IC50 [mM]” value in the data set with fibroblast cell culture is reported as 2.5 mM.

`C=COC(=O)CCCCC(=O)OC=C` [AVE, adipic acid divinyl ester]: the “time to reach the maximum” value in data set [1] (setting [3]) is 4.9 s; in data set [1] (setting [4]) it was 4.9 s; in data set [1] (setting [5]), 8.4 s; in data set [1] (setting [6]) it was 7.7 s; in data set [1] (setting [7]) it was 2.9 s; in data set [1] (setting [8]) it was 5.8 s. For the same molecule, the “time to reach the maximum” value in data set [1] (setting [9]) and in data set [1] (setting [10]) was 2.1 s in each case. In addition, the “IC50 [mM]” value in the data set with fibroblast cell culture came to 10 mM.

As to “Poly(ethylene glycol) dimethacrylate, MG 600 [PEG600 Methacrylate]”, the “time to reach the maximum” value in data set [1] (setting [15]) came to 10.5 s; in data set [1] (PEG600 monomer series, 0% TT), 10.5 s; in data set [1] (setting [16]), 27.0 s; in data set [1] (PEG600 monomer series, 10% TT) it was 26.3 s; in data set [1] (setting [17]), 31.2 s; in data set [1] (PEG600 monomer series, 20% TT), 31.2 s. The “time to reach the maximum” value in data set [1] (setting [18]) was found to be 30.6 s; in data set [1] (PEG600 monomer series, 40% TT), 24.9 s.
